Reference: PubChem BioAssay (NCI)
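Test compounds were applied to cells in 96-well plates for 48 hours at 5 doses. At the TGI there is no net growth.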

Legend:
Experiment in all cases: DTP human tumour cell line panel, 48 h
A549 NSCLC = test system: A549 NSCLC
ACHN renal = test system: ACHN renal
DLD-1 colon = test system: DLD-1 colon
DMS 114 small cell lung = test system: DMS 114 small cell lung
DMS 273 small cell lung = test system: DMS 273 small cell lung
HCT-116 colon = test system: HCT-116 colon
HOP-18 NSCLC = test system: HOP-18 NSCLC
KM20L2 colon = test system: KM20L2 colon
LXFL 529 NSCLC = test system: LXFL 529 NSCLC
M19-MEL melanoma = test system: M19-MEL melanoma
MOLT-4 leukemia = test system: MOLT-4 leukemia
NCI-H23 lung = test system: NCI-H23 lung
NCI-H522 lung = test system: NCI-H522 lung
OVCAR-4 ovarian = test system: OVCAR-4 ovarian
SNB-78 CNS = test system: SNB-78 CNS
SR leukemia = test system: SR leukemia
XF 498 CNS = test system: XF 498 CNS
MDA-MB-435 = test system: MDA-MB-435

| SMILES | TGI (A549 NSCLC) | TGI (ACHN renal) | TGI (DLD-1 colon) | TGI (DMS 114 small cell lung) | TGI (DMS 273 small cell lung) | TGI (HCT-116 colon) | TGI (HOP-18 NSCLC) | TGI (KM20L2 colon) | TGI (LXFL 529 NSCLC) | TGI (M19-MEL melanoma) | TGI (MOLT-4 leukemia) | TGI (NCI-H23 lung) | TGI (NCI-H522 lung) | TGI (OVCAR-4 ovarian) | TGI (SNB-78 CNS) | TGI (SR leukemia) | TGI (XF 498 CNS) | TGI (MDA-MB-435) |
| --- | --- | --- | --- | --- | --- | --- | --- | --- | --- | --- | --- | --- | --- | --- | --- | --- | --- | --- |
| CCC(=O)NCC1(c2c[nH]c3ccccc23)SCCS1 | > 100 µM | > 100 µM | > 100 µM | > 100 µM | > 100 µM | > 100 µM | > 100 µM | > 100 µM | > 100 µM | > 100 µM | > 100 µM | > 100 µM | > 100 µM | > 100 µM | > 100 µM | > 100 µM | > 100 µM | – |
| COc1ccccc1OCc1nnc(SCC(=O)O)n1-c1ccccc1 | > 100 µM | > 100 µM | > 100 µM | > 100 µM | > 100 µM | > 100 µM | – | > 100 µM | > 100 µM | – | > 100 µM | > 100 µM | > 100 µM | > 100 µM | > 100 µM | > 100 µM | > 100 µM | – |
| CC(=O)C1CC2(c3ccccc3)C(=O)c3ccccc3N2O1 (centres undefined) | > 100 µM | > 100 µM | > 100 µM | > 100 µM | > 100 µM | > 100 µM | > 100 µM | > 100 µM | > 100 µM | > 100 µM | > 100 µM | > 100 µM | > 100 µM | > 100 µM | > 100 µM | > 100 µM | > 100 µM | – |
| CC(=O)NC1C(OCc2ccccc2)OC(CO)C(O)C1OCC(=O)NC(C)C(=O)NC(CCC(=O)OCCNC(=O)c1cccc2cc3ccccc3nc12)C(N)=O (centres undefined) | 23.4 µM | 39.3 µM | – | – | – | 31.8 µM | – | – | – | – | > 100 µM | 48.6 µM | 34 µM | 48.7 µM | – | 45.3 µM | – | 42.4 µM |
| Cc1ccccc1N=Nc1ccc(N=Nc2c(O)ccc3cc(S(=O)(=O)O)cc(S(=O)(=O)O)c23)c(C)c1 | > 100 µM | > 100 µM | – | – | – | > 100 µM | – | – | – | – | > 100 µM | > 100 µM | > 100 µM | > 100 µM | – | > 100 µM | – | > 100 µM |
| Cc1nc(SCC(=O)Nc2ccccc2)c2sc(=S)n(-c3ccccc3)c2n1 | > 10 µM | > 10 µM | – | – | – | > 10 µM | – | – | – | – | > 10 µM | > 10 µM | > 10 µM | > 10 µM | – | > 10 µM | – | > 10 µM |
| COc1ccc(OC)c2c1C(=O)C(Cl)=C(Cl)C2=O | 56.4 µM | 10.9 µM | 11.8 µM | 4.76 µM | 20.1 µM | 3.86 µM | 12.4 µM | 22.3 µM | 4.74 µM | 16.2 µM | 8.87 µM | 19.2 µM | 4.68 µM | 13 µM | 15.8 µM | > 88 µM | 3.67 µM | 5.88 µM |
| CN(C)CC1CCC(CN(C)C)C1=NO (centres undefined) | > 100 µM | > 100 µM | > 100 µM | > 100 µM | > 100 µM | > 100 µM | > 100 µM | > 100 µM | > 100 µM | > 100 µM | > 100 µM | – | > 100 µM | > 100 µM | > 100 µM | > 100 µM | – | – |
| NC(=O)c1nnc2cc(F)c(F)cc2c1N | > 100 µM | > 100 µM | – | – | – | > 100 µM | – | – | – | – | > 100 µM | > 100 µM | 56.8 µM | > 100 µM | – | > 100 µM | – | > 100 µM |
| Oc1ccc2ccccc2c1N=Nc1ccc(N=Nc2ccccc2)cc1 | > 100 µM | > 100 µM | – | – | – | > 100 µM | – | – | – | – | > 100 µM | > 100 µM | > 100 µM | > 100 µM | – | 88.2 µM | – | > 100 µM |
| CCOC(=O)c1c(N2CCOCC2)[nH]c(=O)c(C(c2ccc(N(C)C)cc2)c2c(O)c(C(=O)OCC)c(N3CCOCC3)[nH]c2=O)c1O | > 100 µM | > 100 µM | – | – | – | > 100 µM | – | – | – | – | > 100 µM | > 100 µM | > 100 µM | > 100 µM | – | > 100 µM | – | > 100 µM |
| NC(Cc1ccc2oc3cc(=O)c4ccccc4c-3nc2c1)C(=O)O (centres undefined) | 62.5 µM | > 100 µM | > 66.6 µM | 41.1 µM | > 60.1 µM | 76.8 µM | 77.7 µM | > 100 µM | > 100 µM | – | > 88.3 µM | 16.3 µM | 77.7 µM | > 88.9 µM | > 100 µM | 67.6 µM | – | 12.2 µM |
| C/C(CC(=O)Nc1ccc(C)cc1)=N\NC(N)=S | > 100 µM | > 100 µM | > 100 µM | > 100 µM | – | > 100 µM | – | > 100 µM | > 100 µM | > 100 µM | > 100 µM | > 100 µM | > 100 µM | – | > 100 µM | – | > 100 µM | – |
| c1ccc(N=C2SC(c3ccccc3)CN2C23CC4CC(CC(C4)C2)C3)cc1 (centres undefined) | > 100 µM | > 100 µM | – | – | – | > 100 µM | – | – | – | – | > 100 µM | > 100 µM | > 100 µM | > 100 µM | – | > 100 µM | – | > 100 µM |
| C=C(Cl)C(Br)(CCl)CCC(Cl)C(C)C (centres undefined) (tested in a mixture with another compound) | 31.9 µM | 3.98 µM | – | – | – | 3.92 µM | – | – | – | – | 48 µM | 3.79 µM | 2.95 µM | 3.82 µM | – | > 100 µM | – | 3.67 µM |
| COC(=O)c1ccc(/C=N/c2cc(C)nn2-c2ccccc2)cc1 | > 100 µM | > 100 µM | – | – | – | > 100 µM | – | – | – | – | > 100 µM | > 100 µM | > 100 µM | > 100 µM | – | > 100 µM | – | 96.6 µM |
| CCCN(CCC)C(=O)Cc1c2n(c3ccccc13)CCCc1ccccc1-2 | 28.2 µM | 25.1 µM | 26.5 µM | 24.1 µM | 23.2 µM | 26.3 µM | 30.3 µM | 27.9 µM | 26.6 µM | 29.5 µM | 32.9 µM | 25.7 µM | 25.3 µM | 26.2 µM | 27.6 µM | 24.8 µM | 28.8 µM | – |
